Values quoted from earlier work in US7534787B2, “Method of treating diseases and conditions associated with an altered level of amyloid beta peptides and new enolcarboxamide compounds” (Boehringer Ingelheim International GmbH, priority 2004, dated 2009).

System: Aβ42
Details: according to table 3 of WO 01/78721

Row | Structure (SMILES) | Aβ42 lowering activity
1 | Cc1cc(NC(=O)C2=C(O)c3ccccc3S(=O)(=O)N2C)no1 [isoxicam] | do not lower or even increase the Aβ42 level
2 | CN1C(C(=O)Nc2ccccn2)=C(O)c2ccccc2S1(=O)=O [piroxicam] | do not lower or even increase the Aβ42 level
